Measured values published in patent publication US20230399319A1, “Acylsulfamide Compound and Pharmaceutical Use Therefor” (Japan Tobacco Inc., priority 2019, published 2023).
Values joined by “and” are separate entries in the source; they are usually repeats but may differ in a detail not shown here. Equal values may be shown once. Read-outs that look alike come from different tables or passages of the source.

Molecular target: NLRP3 inflammasome (Homo sapiens (Human), UniProt Q96P20)
Experiment: Evaluation of NLRP3 inflammasome inhibitory activity (inhibition of IL-1β production in THP1-Null cells, LPS/Nigericin)
Settings: for inhibition at 3 µM: read-out: % inhibition at 3 μM
[1] = inhibition of IL-1β production in THP1-Null cells
[2] = IL-1β production in THP1-Null cells, PMA/LPS primed, Nigericin 7.5 μmol/L

NLRP3 inflammasome, sequence (Q96P20 whole entry): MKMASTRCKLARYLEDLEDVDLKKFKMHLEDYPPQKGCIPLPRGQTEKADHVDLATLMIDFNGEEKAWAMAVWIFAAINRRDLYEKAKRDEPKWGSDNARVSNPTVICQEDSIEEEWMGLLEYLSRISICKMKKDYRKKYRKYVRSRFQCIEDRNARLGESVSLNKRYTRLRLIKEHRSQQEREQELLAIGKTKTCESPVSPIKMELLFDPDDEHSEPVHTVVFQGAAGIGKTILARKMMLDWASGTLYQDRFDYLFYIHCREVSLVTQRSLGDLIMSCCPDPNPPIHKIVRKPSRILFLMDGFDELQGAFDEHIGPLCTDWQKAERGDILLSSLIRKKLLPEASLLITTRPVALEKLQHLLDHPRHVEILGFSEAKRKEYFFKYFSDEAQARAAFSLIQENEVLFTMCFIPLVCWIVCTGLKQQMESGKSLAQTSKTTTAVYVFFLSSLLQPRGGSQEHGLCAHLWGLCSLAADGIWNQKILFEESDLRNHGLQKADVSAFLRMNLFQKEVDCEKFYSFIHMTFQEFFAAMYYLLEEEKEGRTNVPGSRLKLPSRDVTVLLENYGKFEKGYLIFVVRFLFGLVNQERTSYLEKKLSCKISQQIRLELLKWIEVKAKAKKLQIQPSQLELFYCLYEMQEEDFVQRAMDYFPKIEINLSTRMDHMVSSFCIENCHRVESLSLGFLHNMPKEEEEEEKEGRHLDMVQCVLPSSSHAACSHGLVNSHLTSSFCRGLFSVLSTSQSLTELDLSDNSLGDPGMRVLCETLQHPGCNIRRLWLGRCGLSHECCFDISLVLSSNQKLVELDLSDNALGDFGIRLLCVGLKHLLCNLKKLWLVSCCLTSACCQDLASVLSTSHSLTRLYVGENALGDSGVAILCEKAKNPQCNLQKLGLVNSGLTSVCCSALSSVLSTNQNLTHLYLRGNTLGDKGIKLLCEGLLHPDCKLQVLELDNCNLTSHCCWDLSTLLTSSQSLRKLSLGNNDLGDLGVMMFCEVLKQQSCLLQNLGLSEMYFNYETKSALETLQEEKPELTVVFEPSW

Structure (SMILES)	IC50 [1]	further results
Cc1ccc(C(F)(F)F)cc1Nc1nc(C(=O)NS(=O)(=O)N2CCC(O)C2)co1 (racemic) [Example 29]	–	IC50: 120 nM
CC(C)c1ccc(C(F)F)cc1Nc1nc(C(=O)NS(=O)(=O)N2CCCN(S(=O)(=O)C3CCOC3)CC2)co1 (racemic) [Example 2-226]	–	IC50: 97 nM
Cc1ccc(C)c(Nc2nc(C(=O)NS(=O)(=O)N3CCCOCC3)co2)c1 [Example 2-073]	280 nM	–
Cc1ccc(C(F)(F)F)cc1Nc1nc(C(=O)NS(=O)(=O)N2CCOCC(C(=O)N(C)C)C2)co1 (racemic) [Example 2-143]	–	IC50: 86 nM
Cc1ccc2c(c1Nc1nc(C(=O)NS(=O)(=O)N(C)C)cs1)CCC2 [Example 2-083]	490 nM	–
Cc1ccc(C(F)(F)F)cc1Nc1nc(C(=O)NS(=O)(=O)N2CCCC2)co1 [Example 76]	–	IC50 [2]: 92 nM
CC(=O)NC1CCN(S(=O)(=O)NC(=O)c2coc(Nc3cc(C(F)(F)F)ccc3C)n2)CC1 [Example 2-033]	150 nM	–
CCCS(=O)(=O)N1CCCN(S(=O)(=O)NC(=O)c2coc(Nc3cn(C(C)C)nc3C(C)C)n2)CC1 [Example 2-160]	170 nM	–
Cc1ccc(C(F)(F)F)cc1Nc1nc(C(=O)NS(=O)(=O)N2CCCC(n3cccn3)CC2)co1 (racemic) [Example 2-273]	–	IC50: 24 nM
Cc1ccc(C(F)(F)F)cc1Nc1nc(C(=O)NS(=O)(=O)N2CC3CCC(C2)O3)co1 [Example 77]	–	IC50 [2]: 56 nM
Cc1ccc(C(F)(F)F)cc1Nc1nc(C(=O)NS(=O)(=O)N2CCCN(c3nccc(C(C)C)n3)CC2)co1 [Example 2-186]	41 nM	–
Cc1cnc(C(F)(F)F)cc1Nc1nc(C(=O)NS(=O)(=O)N(C)C)co1 [Example 2-074]	11000 nM	–
CCC1CN(S(=O)(=O)NC(=O)c2cnc(Nc3c4c(cc5c3CCC5)CCC4)o2)CCO1 (racemic) [Example 16]	–	IC50: < 30 nM
C[C@@H]1CCCN1S(=O)(=O)NC(=O)c1coc(Nc2c3c(c(Cl)c4c2CCC4)CCC3)n1 [Example 45]	–	IC50 [2]: 200 nM
CCCCS(=O)(=O)N1CCCN(S(=O)(=O)NC(=O)c2coc(Nc3nn(C(C)C)cc3C(C)C)n2)CC1 [Example 2-177]	47 nM	–
Cc1ccc(C(C)C)cc1Nc1nc(C(=O)NS(=O)(=O)N2CCOC(COC(F)F)CC2)co1 (stereo not shown) [Example 2-326]	26 nM	–
COc1ccc(C(F)(F)F)cc1Nc1nc(C(=O)NS(=O)(=O)N2CCCOCC2)co1 [Example 2-137]	130 nM	–
Cc1ccc(C(F)(F)F)cc1Nc1nc(C(=O)NS(=O)(=O)N2CCCN(S(=O)(=O)CC(C)C)CC2)co1 [Example 2-128]	20 nM	–
Cc1ccc(C(F)(F)F)cc1Nc1nc(C(=O)NS(=O)(=O)N2CCNC(=O)CC2)co1 [Example 2-050]	600 nM	–
CC(C)c1ccc(C(C)C)c(Nc2nc(C(=O)NS(=O)(=O)N(C)C)co2)c1 [Example 2-070]	120 nM	–
CN(C1CCOC1)S(=O)(=O)NC(=O)c1cnc(Nc2c3c(cc4c2CCC4)CCC3)o1 (racemic) [Example 24]	–	IC50: 160 nM
Cn1cc(N(C2CCOCC2)S(=O)(=O)NC(=O)c2cnc(Nc3c4c(cc5c3CCC5)CCC4)o2)cn1 [Example 18]	–	IC50 [2]: 5400 nM
CC1(O)CCN(S(=O)(=O)NC(=O)c2coc(Nc3c4c(c(F)c5c3CCC5)CCC4)n2)C1 (racemic) [Example 33, 2-((8-fluoro-1,2,3,5,6,7-hexahydro-s-indacen-4-yl)amino)-N-((3-hydroxy-3-methylpyrrolidin-1-yl)sulfonyl)oxazole-4-carboxamide]	–	IC50 [2]: 99 nM
CCCN1CCN(S(=O)(=O)NC(=O)c2coc(Nc3cc(C(F)(F)F)ccc3C)n2)CCC1=O [Example 2-320]	–	IC50: 600 nM

Structure (SMILES)	IC50 [1]	further results
CC(=O)N1CCN(S(=O)(=O)NC(=O)c2coc(Nc3c4c(c(Cl)c5c3CCC5)CCC4)n2)CC1 [Example 54]	–	IC50 [2]: 170 nM
CC(C)c1ccc2c(c1Nc1nc(C(=O)NS(=O)(=O)N(C)C)co1)CCC2 [Example 2-118]	260 nM	–
CCc1nn(C(C)C)cc1Nc1nc(C(=O)NS(=O)(=O)N2CCCOCC2)co1 [Example 2-193]	–	inhibition at 3 µM: 46%
Cc1ccc2c(c1Nc1nc(C(=O)NS(=O)(=O)N(C)C)co1)CCC2 [Example 69]	–	IC50 [2]: 150 nM
Cc1ccc(C(F)(F)F)nc1Nc1nc(C(=O)NS(=O)(=O)N2CCCOCC2)co1 [Example 2-088]	120 nM	–
Cc1ccc(C(F)(F)F)cc1Nc1nc(C(=O)NS(=O)(=O)N2CCCN(S(=O)(=O)C3CC3)CC2)co1 [Example 2-103]	20 nM	–
C[C@H]1CCCN1S(=O)(=O)NC(=O)c1coc(Nc2c3c(c(Cl)c4c2CCC4)CCC3)n1 [Example 44]	–	IC50 [2]: 230 nM
Cc1ccc(C(F)(F)F)cc1Nc1nc(C(=O)NS(=O)(=O)N2CCOCC2c2ccccc2)co1 (racemic) [Example 2-346]	–	IC50: 290 nM
CN(C)S(=O)(=O)NC(=O)c1cnc(Nc2c3c(c(Cl)c4c2CCC4)CCC3)o1 [Example 14]	–	IC50 [2]: 97 nM
Cc1ccc(C(F)(F)F)cc1Nc1nc(C(=O)NS(=O)(=O)NC2CCOCC2)co1 [Example 2-037]	2700 nM	–
Cc1ccc(C(F)(F)F)cc1Nc1nc(C(=O)NS(=O)(=O)N2CCCN(S(=O)(=O)CCC(F)(F)F)CC2)co1 [Example 2-130]	20 nM	–
COC1COCCN(S(=O)(=O)NC(=O)c2coc(Nc3cc(C(F)(F)F)ccc3C)n2)C1 (single isomer, unassigned) [Example 2-219]	29 nM	–
COCC1CN(S(=O)(=O)NC(=O)c2coc(Nc3cc(C(F)(F)F)ccc3C)n2)CCO1 (stereo not shown) [Example 2-049]	46 nM	–
Cc1ccc(C(F)(F)F)cc1Nc1nc(C(=O)NS(=O)(=O)N2CCCN(c3cnccn3)CC2)co1 [Example 2-245]	73 nM	–
Cc1ccc(C(F)(F)F)cc1Nc1nc(C(=O)NS(=O)(=O)N2CCOC(C(=O)N(C)C)CC2)co1 (stereo not shown) [Example 2-263]	79 nM	–
Cc1ccc(C(F)(F)F)cc1Nc1nc(C(=O)NS(=O)(=O)N2CCC(S(=O)(=O)NC(C)C)CC2)co1 [Example 2-007]	< 30 nM	–
Cc1ccc(C2CC2)cc1Nc1nc(C(=O)NS(=O)(=O)N(C)C)co1 [Example 2-035]	220 nM	–
O=C(NS(=O)(=O)N1CCCOCC1)c1coc(Nc2cc(C(F)(F)F)ccc2Cl)n1 [Example 2-136]	–	inhibition at 3 µM: -1.6%
COC1COCCN(S(=O)(=O)NC(=O)c2coc(Nc3cc(C(F)(F)F)ccc3C(C)C)n2)C1 (racemic) [Example 2-121]	–	IC50: 35 nM
CCCS(=O)(=O)N1CCCN(S(=O)(=O)NC(=O)c2coc(Nc3cc(CC)ccc3C)n2)CC1 [Example 2-256]	15 nM	–
CC(C)n1cc(Nc2nc(C(=O)NS(=O)(=O)N3CCCOCC3)co2)c(C2CCC2)n1 [Example 2-196]	2700 nM	–
Cc1cnc(C(F)(F)F)cc1Nc1nc(C(=O)NS(=O)(=O)N2CCCOCC2)co1 [Example 2-075]	4500 nM	–
CCOC(=O)c1c2c(nn1C)CN(S(=O)(=O)NC(=O)c1coc(Nc3c4c(c(F)c5c3CCC5)CCC4)n1)C2 [Example 67]	–	IC50 [2]: 840 nM
CCCN1CCCN(S(=O)(=O)NC(=O)c2coc(Nc3cc(C(F)(F)F)ccc3C)n2)CC1 [Example 2-154]	230 nM	–

Structure (SMILES)	IC50 [1]	further results
CC(C)c1ccc2c(c1Nc1nc(C(=O)NS(=O)(=O)N3CCCOCC3)co1)CCC2 [Example 2-119]	96 nM	–
COCCOCC1CCN(S(=O)(=O)NC(=O)c2coc(Nc3cc(C)ccc3C)n2)CCO1 (stereo not shown) [Example 2-345]	71 nM	–
COCC1CN(S(=O)(=O)NC(=O)c2coc(Nc3cc(C(F)(F)F)ccc3C)n2)CCCO1 (racemic) [Example 2-091]	–	IC50: 38 nM
CCCCS(=O)(=O)N1CCCN(S(=O)(=O)NC(=O)c2coc(Nc3cc(C(F)(F)F)ccc3C)n2)CC1 [Example 2-126]	10 nM	–
Cc1ccc(C(F)(F)F)cc1Nc1nc(C(=O)NS(=O)(=O)N2CCCC(C)(C(=O)N(C)C)CC2)co1 (racemic) [Example 2-259]	–	IC50: 87 nM
Cc1ccc(C(F)(F)F)cc1Nc1nc(C(=O)NS(=O)(=O)N2CCCN(c3ncccn3)CC2)co1 [Example 2-183]	15 nM	–
Cc1ccc(C2CC2)cc1Nc1nc(C(=O)NS(=O)(=O)N2CCCOCC2)co1 [Example 2-042]	56 nM	–
CC(C)c1ccc(OC(F)(F)F)c(Nc2nc(C(=O)NS(=O)(=O)N3CCCOCC3)co2)c1 [Example 2-175]	400 nM	–
CCCCS(=O)(=O)N1CCN(S(=O)(=O)NC(=O)c2coc(Nc3cc(C(F)(F)F)ccc3C)n2)CC(OC)C1 (racemic) [Example 2-204]	–	IC50: 29 nM
CN(C)C1CCN(S(=O)(=O)NC(=O)c2coc(Nc3c4c(c(F)c5c3CCC5)CCC4)n2)C1 (racemic) [Example 74]	–	IC50: 180 nM
CCC(=O)N1CCCN(S(=O)(=O)NC(=O)c2coc(Nc3cc(C(F)(F)F)ccc3C)n2)CC1 [Example 2-102]	50 nM	–
CS(=O)(=O)C1CCN(S(=O)(=O)NC(=O)c2coc(Nc3c4c(c(F)c5c3CCC5)CCC4)n2)CC1 [Example 58]	–	IC50 [2]: 39 nM
O=C(NS(=O)(=O)N1C[C@H]2COC[C@H]2C1)c1coc(Nc2c3c(c(Cl)c4c2CCC4)CCC3)n1 [Example 61]	–	IC50 [2]: 170 nM
CN1CCN(S(=O)(=O)NC(=O)c2coc(Nc3c4c(c(F)c5c3CCC5)CCC4)n2)CC1=O [Example 64]	–	IC50 [2]: 5700 nM
O=C(NS(=O)(=O)N1CCOCC1)c1csc(Nc2c3c(cc4c2CCC4)CCC3)n1 [Example 2-012]	60 nM and < 30 nM	–
CC(C)c1cn(C(C)C)nc1Nc1nc(C(=O)NS(=O)(=O)N2CCCOCC2)co1 [Example 2-116]	85 nM	–
Cc1ccc(C)c(Nc2nc(C(=O)NS(=O)(=O)N3CCC[C@H]3CN3CCCC3)co2)c1 [Example 2-321]	–	inhibition at 3 µM: -11%
O=C(NS(=O)(=O)N1CCC2(COC2)C1)c1coc(Nc2c3c(c(Cl)c4c2CCC4)CCC3)n1 [Example 48]	–	inhibition at 30 µM (read-out: Inhibition at 30 μM): 23%
Cc1cnn(C2CCCN(S(=O)(=O)NC(=O)c3coc(Nc4cc(C(F)(F)F)ccc4C)n3)CC2)c1 (stereo not shown) [Example 2-298]	67 nM	–
CCOCC1CCN(S(=O)(=O)NC(=O)c2coc(Nc3cc(C(F)F)ccc3C)n2)CCO1 (stereo not shown) [Example 2-332]	22 nM	–
Cc1ccc(CC(F)(F)F)cc1Nc1nc(C(=O)NS(=O)(=O)N2CCCOCC2)co1 [Example 2-063]	67 nM	–
CCC1COCCN1S(=O)(=O)NC(=O)c1coc(Nc2cc(C(C)C)ccc2C)n1 (racemic) [Example 2-082]	–	IC50: 160 nM
